What was measured:
[1] = tested on: MES-induced tonic seizures; assay: Maximal electroshock seizure (MES) test; format: in vivo, mice; settings: for HED - mg (human equivalent dose): converted to HED of 10 mg/kg, assuming 60 kg human
Protocol: This study was performed using male C57Bl6 mice, weighing between 23.6-31.2 g, which were purchased from a licensed breeder (Charles River, UK). Naïve mice were acclimatized to the procedure room in their home cages, with food and water available ad libitum. Animals were housed in groups of 2-3, in standard caging on a 12 hr/12 hr light-dark cycle. All animals were tail marked and weighed at the beginning of the study. Animals were randomly assigned to vehicle or treatment groups.
The following drugs were used in this study: synthetic CBD (SYN) and botanically derived purified CBD (BOT). The control vehicle used was (1:1:18), which was 5% Ethanol, 5% Kolliphor, 90% saline, and has been used extensively throughout similar seizure tests. All drugs were dissolved in the control vehicle for comparison. Animals were dosed (10 ml/kg) i.p. at 60 minutes prior to the administration of the maximal electroshock seizure (MES) test. In addition to the vehicle group, the dosage groups used for each treatment and included doses of 10, 50, 100 (Experiment 1 only), 150 and 200 mg/kg for CBD (SYN) and CBD (BOT). The number of animals in each of these groups were 10 (n=10).
Two separate experiments were undertaken using two different batches of the botanically derived purified CBD. In the first experiment the concentration of THC in botanically derived purified CBD was 0.02% THC (w/w) whereas in the second experiment the concentration of THC in the botanically derived purified CBD was approximately 0.1% THC (w/w).
The protective activity of CBD (SYN) and CBD (BOT) was evaluated and expressed as effective doses (ED50 in mg/kg), protecting 50% of mice against MES-induced tonic seizures. Electroconvulsions were produced by a fixed current intensity of 30 mA and corneally delivered electroshock (0.2 second duration). Mice were individually assessed for seizures following this pre-determined high level (30 mA) corneally delivered electroshock of sufficient intensity to reliably produce tonic hind limb extension seizures in 100% of control animals. […]

[2] = tested on: sub-chronic PCP-induced deficit in novel object recognition; assay: Novel object recognition (NOR) test after sub-chronic PCP; format: in vivo, rats
Protocol: Female hooded-Lister rats were used for this experiment. Rats were housed in groups of 5 under standard laboratory conditions under a 12 hr light: dark cycle, with lights on at 0700 hr. Testing was carried out in the light phase. Rats were randomly assigned to two treatment groups and treated with vehicle, n=20 (distilled water, i.p.) or Phencyclidine hydrochloride (PCP), n=100 (2 mg/kg, i.p. twice daily for 7-days). PCP was dissolved in distilled water. This was followed by a 7-day wash out period before the rats were tested following acute treatment with CBD, risperidone or vehicle.
Risperidone (0.1 mg/kg) was dissolved in a minimum volume of acetic acid, made up to volume with distilled water and pH adjusted to 6 with 0.1M NaOH and administered via the i.p. route in a volume of 1 ml/kg, 120 minutes prior to testing.
Botanically derived purified CBD was tested at 2, 10, 20 or 100 mg/kg and was dissolved in 2:1:17 (Ethanol:Cremofor:Saline 0.9%) and administered via the i.p. route in a volume of 5 ml/kg, 60 minutes prior to testing. The THC concentration in the botanically derived purified CBD was 0.03% (w/w) THC.
Synthetic CBD at 1, 2, 5, 10 or 20 mg/kg was dissolved in 2:1:17 (Ethanol:Cremofor:Saline 0.9%) and administered via the i.p. route in a volume of 5 ml/kg, 120 minutes prior to testing.
Rats were allowed to habituate to the empty test box and the behavioral test room environment for one hour on day 1. Prior to behavioral testing on day 2, rats were given a further 3 minute habituation.
Following the 3 minute habituation period, the rats are given two 3 minute trials (T1 and T2) which were separated by a 1 minute inter-trial interval in the home cage during which the objects were changed. Behavior in all trials was recorded on video for subsequent blind scoring.
In the acquisition trial (T1), the animals were allowed to explore two identical objects (A1 and A2) for 3 minutes. In the retention trial (T2), the animals were allowed to explore a familiar object (A) from T1 and a novel object (B) for 3 minutes. […]
The exploration time(s) of each object (A, B, familiar and novel) in each trial were recorded using two stopwatches and the following factors were calculated: total exploration time of both objects in the acquisition trial, total exploration time of both objects in the retention trial. Habituation of exploratory activity included the exploration time, as measured by the number of lines crossed, for both trials.
All data were assessed for normality using D'Agostino and Pearson normality test. Data non-normally distributed were analyzed using Kruskal-Wallis followed by planned comparisons with Dunn's correction. Normally distributed data were analyzed using one-way ANOVA followed by planned comparisons with Sidak's correction. […]

[3] = tested on: human iPSC derived cerebral cortical neural stem/progenitor cells (hNSCs); assay: Axonal outgrowth and neuronal differentiation of hNSCs (GAP43 immunocytochemistry); format: cell-based; settings: 1 μM
Protocol: Human iPSC-derived cerebral cortical neural stem cells (hNSCs) (Axol Bioscience Inc., UK) were cultured as monolayers at a density of 1.0×10^4 cells/cm^2 on 100 mm diameter Petri dishes. The cells were collected from their original cryovial, suspended in Plating-XF Medium and plated on Petri dishes coated with SureBondXF 1× working solution prepared in D-PBS (without calcium or magnesium). hNSCs were incubated at 37° C. and 5% CO2 and 24 hours after of incubation, the plating medium was replaced with fresh Neural Expansion-XF Medium supplemented with the growth factors Recombinant Human EGF and Recombinant Human FGF2 (final concentration of 20 ng/mL (1×) of FGF2 and EGF). The cultures were re-fed with fresh Neural Expansion-XF supplemented with EGF and FGF2 every two days. When the hNSCs reached approximately 80% confluence, they were prepared for treatment. Pre-warmed Axol Unlock-XF was used to detach the cells and after 3 minutes of incubation the cells were re-suspended in Neural Expansion-XF Medium supplemented with EGF and FGF2. The cells (1×10^4 cells/cm^2) were then plated in Petri dishes coated with SureBondXF 1× and after 2 hours the medium was replaced with fresh Neural Expansion-XF supplemented with EGF and FGF2. […]

[4] = tested on: human iPSC derived cerebral cortical neural stem/progenitor cells (hNSCs); assay: Neurogenesis and neuronal differentiation of hNSCs (MAP2+ cell count, immunohistochemistry); format: cell-based; settings: for Mean % MAP2+ cells (3 days): 3 days incubation; for Mean % MAP2+ cells (3 days) / Mean % MAP2+ cells (5 days): hNSCs; for Mean % MAP2+ cells (5 days): 5 days incubation
Protocol: Human iPSC-derived cerebral cortical neural stem cells (hNSCs) (Axol Bioscience Inc., UK) were cultured as monolayers at a density of 1.0×10^4 cells/cm^2 on 100 mm diameter Petri dishes. The cells were collected from their original cryovial, suspended in Plating-XF Medium and plated on Petri dishes coated with SureBondXF 1× working solution prepared in D-PBS (without calcium or magnesium). hNSCs were incubated at 37° C. and 5% CO2 and 24 hours after of incubation, the plating medium was replaced with fresh Neural Expansion-XF Medium supplemented with the growth factors Recombinant Human EGF and Recombinant Human FGF2 (final concentration of 20 ng/mL (1×) of FGF2 and EGF). The cultures were re-fed with fresh Neural Expansion-XF supplemented with EGF and FGF2 every two days. When the hNSCs reached approximately 80% confluence, they were prepared for treatment. Pre-warmed Axol Unlock-XF was used to detach the cells and after 3 minutes of incubation the cells were re-suspended in Neural Expansion-XF Medium supplemented with EGF and FGF2. The cells (1×10^4 cells/cm^2) were then plated in Petri dishes coated with SureBondXF 1× and after 2 hours the medium was replaced with fresh Neural Expansion-XF supplemented with EGF and FGF2.
hNSCs cultured as described above were plated at a density of 1×10^4 cells/cm^2 on SureBondXF-coated coverslips in the presence of botanically derived purified CBD; synthetic CBD; or vehicle diluted in the Neural Differentiation-XF Medium (DM, without growth factors) for 3-5 days at 37° C. in a 5% CO2/95% air atmosphere.
Cannabinoids were dissolved in 95% (v/v) ethanol and added to the medium to obtain final concentrations of 0.1 or 1 μM CBD.
Ethanol was added to the vehicle-treated cells for the whole differentiation period of 3-5 days wherein the final concentration was never higher than 0.05% (v/v).
In order to perform immunohistochemistry, the cells were fixed with 4% (w/v) paraformaldehyde. Nonspecific binding was blocked with 10% (v/v) fetal bovine serum and 0.1% (v/v) Triton X-100 and incubated with primary antibodies: mouse anti-Map2ab (Sigma-Aldrich; 1:200) and rabbit anti-GFAP (DAKO; 1:200) or rabbit anti-Gap43 (Synaptic System; 1:300 at room temperature for 4 hours. Secondary antibodies—anti-mouse Alexa594 (Life Technologies; 1:100) and anti-rabbit Alexa488 (Life Technologies; 1:100)—were used for immunofluorescence. Cells were then counterstained with DAPI, washed with PBS and cover slipped with Aquatex mounting medium (Merck, Darmstadt, Germany). The immunofluorescence was studied with an epifluorescence microscope (Leica AF6000) equipped with the appropriate filter and then acquired using a digital camera (Leica, DFC 340) connected to the microscope and image analysis software (Leica, LAS AF). No immunoreactivity was found in the samples processed for the control of specificity of each primary antibody used in the study, which was performed by omitting the primary antibody before adding the appropriate secondary antibody.
Digital Leica LAS AF 2.2.0 software (Live Data Mode system) was used for counting Map2ab+DAPI+ cells. […] For each experimental condition, cells from 3 different tubes were each analyzed in triplicate and 3 frames were collected at 20× magnification. Data were analyzed with GraphPad Prism 6 software, version 6.05 (GraphPad, Inc.) and are expressed as mean±SEM. Statistical differences among groups were determined by two-way ANOVA followed by post hoc Bonferroni tests for comparison among means. […]

Compound: C=C(C)[C@@H]1CCC(C)=C[C@H]1c1c(O)cc(CCCCC)cc1O [Synthetic CBD, 2-[(1R,6R)-3-Methyl-6-(1-methylethenyl)-2-cyclohexen-1-yl]-5-pentyl-1,3-benzenediol]
- HED - mg (human equivalent dose) ([1]; Experiment 1): 600.0 mg
- ED50 protecting 50% of mice against MES-induced tonic seizures ([1]; Experiment 1, i.p. 60 minutes prior to MES, sigmoidal curve - constant top, listed as CBD (SYN)): 77.60 mg/kg
- HED - mg (human equivalent dose) ([1]; Experiment 2): 600.0 mg
- human daily amount equivalent to the rat MED ([2]; 70 kg human): 112 mg/day
- amount of CBD required in a human relative to botanically derived purified CBD ([2]; from difference in MED): five times the amount of CBD
- human equivalent dose of the rat MED ([2]; rat dose multiplied by 0.16 (FDA dose conversion guidance)): 1.6 mg/kg/day
- minimal effective dose (MED) attenuating sub-chronic PCP-induced deficit in novel object recognition ([2]; rats, i.p., 120 min ppt): 10 mg/kg
- Mean % GAP43+ cells (3 days) ([3]; 3 days incubation): 8.40 ± 2.0%
- Mean % GAP43+ cells (5 days) ([3]; 5 days incubation): 9.15 ± 1.6%
- Mean % MAP2+ cells (3 days) ([4]; 0.1 μM): 4.87 ± 0.1%
- Mean % MAP2+ cells (5 days) ([4]; 0.1 μM): 6.02 ± 0.3%
- Mean % MAP2+ cells (3 days) ([4]; 1 μM): 6.11 ± 0.3%
- Mean % MAP2+ cells (5 days) ([4]; 1 μM): 7.09 ± 0.1%
- Effect on neurogenesis and neuronal differentiation of hNSCs (in words) ([4]; 0.1 and 1 μM, 3 or 5 days, relative to vehicle-treated cells): did not have a significant effect
